Results published in patent US20250186503A1, “METHODS AND COMBINATIONS FOR TREATMENT AND T CELL MODULATION” (Juno Therapeutics, Inc., priority 2018, published 2025).

Assays:
[1] = system: K562.CD19 target cells; assay: Cytolytic function of anti-CD19 CAR+ T cells against K562.CD19 target cells (killing index); assay type: cell-based, human; details: for cytolytic function of anti-CD19 CAR-expressing T cells: generally
Method: (§1) Cytokine expression, target cell cytolysis and expression of surface markers of anti-CD19 CAR-expressing T cells were assessed.
K562.CD19 target cells were transduced with NucLight Red to permit their tracking by microscopy. Cytolytic activity was assessed by measuring the loss of viable target cells over a period of five days, as determined by red fluorescent signal (using the IncuCyte® Live Cell Analysis System, Essen Bioscience).

[2] = system: anti-CD19 CAR-expressing T cells; assay: T cell surface marker expression after co-culture with K562.CD19 target cells; assay type: cell-based, human; details: for expression of CD27 / expression of the other assessed activation markers / expression of CD45RO: 24 hours; for expression of CD45RO: all donors and E:T ratios; for expression of CD69 and LAG3: cells derived from donor 3
Method: as §1

[3] = molecular target: T1, Ikaros (Homo sapiens, UniProt Q13422+Q96SW2); assay: Intracellular Ikaros expression in CAR-expressing T cells; assay type: cell-based
T1 construct: intracellular levels of Ikaros in CD4+ CAR+ or CD8+ CAR+ cells; endogenous in cells; host or cells: primary human CD4+ and CD8+ T cells transduced with an anti-CD19 CAR (FMC63 scFv)
T1 sequence (Q13422 whole entry): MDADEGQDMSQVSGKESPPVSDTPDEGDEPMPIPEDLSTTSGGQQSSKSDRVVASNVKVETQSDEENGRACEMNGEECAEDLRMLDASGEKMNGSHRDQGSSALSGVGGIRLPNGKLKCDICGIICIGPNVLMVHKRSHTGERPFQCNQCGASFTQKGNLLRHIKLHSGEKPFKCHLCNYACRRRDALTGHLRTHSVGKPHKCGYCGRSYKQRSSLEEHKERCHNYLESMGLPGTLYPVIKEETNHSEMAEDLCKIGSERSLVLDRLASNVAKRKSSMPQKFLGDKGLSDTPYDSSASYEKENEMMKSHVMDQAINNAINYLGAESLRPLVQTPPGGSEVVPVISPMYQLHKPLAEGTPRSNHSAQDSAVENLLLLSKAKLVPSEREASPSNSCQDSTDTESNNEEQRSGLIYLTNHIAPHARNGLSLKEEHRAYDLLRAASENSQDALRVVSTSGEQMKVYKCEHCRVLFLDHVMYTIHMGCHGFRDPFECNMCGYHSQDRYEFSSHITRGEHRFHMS
T1 sequence (Q96SW2 whole entry): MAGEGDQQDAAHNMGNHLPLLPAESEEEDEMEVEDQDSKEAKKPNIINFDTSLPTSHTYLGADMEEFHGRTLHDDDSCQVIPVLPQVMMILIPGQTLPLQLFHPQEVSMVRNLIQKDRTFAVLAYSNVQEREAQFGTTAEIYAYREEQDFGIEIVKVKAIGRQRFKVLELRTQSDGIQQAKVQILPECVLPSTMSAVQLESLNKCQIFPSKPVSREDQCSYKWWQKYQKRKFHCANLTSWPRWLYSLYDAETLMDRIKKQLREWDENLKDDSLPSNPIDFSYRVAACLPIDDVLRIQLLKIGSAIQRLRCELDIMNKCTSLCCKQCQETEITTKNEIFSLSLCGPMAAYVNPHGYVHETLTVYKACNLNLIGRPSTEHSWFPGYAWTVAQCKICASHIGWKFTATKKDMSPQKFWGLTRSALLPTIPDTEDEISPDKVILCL
T1 sequence (Q16531 whole entry partner): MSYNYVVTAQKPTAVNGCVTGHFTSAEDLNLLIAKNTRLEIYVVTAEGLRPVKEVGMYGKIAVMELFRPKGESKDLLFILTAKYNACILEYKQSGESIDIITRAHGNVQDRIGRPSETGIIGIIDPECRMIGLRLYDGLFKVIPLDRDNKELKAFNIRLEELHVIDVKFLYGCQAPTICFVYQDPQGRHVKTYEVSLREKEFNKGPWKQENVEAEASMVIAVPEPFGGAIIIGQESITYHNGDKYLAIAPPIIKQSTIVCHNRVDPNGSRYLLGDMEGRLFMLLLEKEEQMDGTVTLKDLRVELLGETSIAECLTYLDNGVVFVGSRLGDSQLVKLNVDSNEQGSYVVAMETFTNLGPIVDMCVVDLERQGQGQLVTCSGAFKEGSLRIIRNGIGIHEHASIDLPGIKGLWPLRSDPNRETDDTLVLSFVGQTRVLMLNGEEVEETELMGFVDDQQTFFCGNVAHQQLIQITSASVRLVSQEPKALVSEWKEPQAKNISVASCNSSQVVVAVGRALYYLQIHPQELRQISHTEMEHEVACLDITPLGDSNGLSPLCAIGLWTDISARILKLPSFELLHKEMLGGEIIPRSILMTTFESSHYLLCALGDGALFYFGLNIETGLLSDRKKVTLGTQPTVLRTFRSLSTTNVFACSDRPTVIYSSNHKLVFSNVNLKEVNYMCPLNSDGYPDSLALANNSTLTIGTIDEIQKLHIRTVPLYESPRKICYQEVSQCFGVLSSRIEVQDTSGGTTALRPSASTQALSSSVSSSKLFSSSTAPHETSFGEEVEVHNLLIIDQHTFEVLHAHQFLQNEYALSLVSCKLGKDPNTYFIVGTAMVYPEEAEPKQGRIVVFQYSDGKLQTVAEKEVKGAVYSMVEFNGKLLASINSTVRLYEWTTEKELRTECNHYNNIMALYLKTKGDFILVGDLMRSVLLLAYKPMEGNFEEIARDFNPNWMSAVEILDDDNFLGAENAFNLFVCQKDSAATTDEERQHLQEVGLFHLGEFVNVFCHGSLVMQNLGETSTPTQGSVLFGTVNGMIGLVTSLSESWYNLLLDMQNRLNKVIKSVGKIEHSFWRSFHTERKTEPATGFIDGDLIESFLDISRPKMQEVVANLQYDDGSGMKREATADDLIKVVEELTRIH
Description: FIGS. 31A-31C show flow cytometry analysis of intracellular Ikaros or Aiolos expression on both CD4+ anti-CD19 CAR-expressing T cells and CD8+ anti-CD19 CAR-expressing T cells. […] Median fluorescence intensity (MFI) values for Ikaros and Aiolos were normalized and calculated as a percentage relative to […] vehicle control.

[4] = system: anti-CD19 CAR-expressing T cells; assay: Cytokine production after anti-idiotypic antibody stimulation of anti-CD19 CAR+ T cells; assay type: cell-based, human; details: 24 hours; anti-idiotypic antibody 0.3, 3 and 30 μg/ml
Method: Cytokine expression and expression of surface markers of anti-CD19 CAR-expressing T cells were assessed.

[5] = system: anti-CD19 CAR T cells; assay: RNA-seq of anti-CD19 CAR T cells, compound concurrent with long-term stimulation; assay type: cell-based, human; details: present during chronic stimulation
Method: Gene expression was analyzed by RNA sequencing (RNA-seq) on the complementary DNA (cDNA) samples prepared from the RNA isolated from the long-term stimulated CAR-expressing T cells or on CAR-expressing T cells that had not undergone the long-term stimulation.

[6] = system: anti-BCMA CAR T cells; assay: Cytokine expression of anti-BCMA CAR T cells stimulated with BCMA-conjugated beads; assay type: cell-based, human; details: 24 hours
Method: Cryofrozen anti-BCMA CAR T cells, produced substantially as described in Example 1 and formulated at a 1:1 ratio of CD4+ and CD8+ T cells, were thawed.
Twenty four hours after addition of BCMA-conjugated beads, the presence of TNF-α, IFNγ, and IL-2 in culture supernatants was assessed.
In a further exemplary study, two different anti-BCMA CAR T cell compositions were generated from different donors, each containing T cells expressing the same anti-BCMA CAR. The cells were thawed and incubated with beads (diameter about 4.5 pm) from a 5 μg/mL or 200 μg/mL BCMA-conjugated bead composition generated as described in Example 1. […] Twenty four hours after addition of BCMA-conjugated beads, IL-2 production by the anti-BCMA CAR+ T cells was assessed in culture supernatants.
The cells were gated on transduced, live CD3+ cells, and assessed by flow cytometry for intracellular cytokine accumulation of IFNγ and TNFα in CD4+ and CD8+ cells.

[7] = system: OPM-2; assay: Cytokine production of anti-BCMA CAR T cells incubated with OPM-2 target cells; assay type: cell-based, human
[8] = system: RPMI-8226 BCMA expressing target cells; assay: Anti-BCMA CAR T cells chronically stimulated with BCMA-conjugated beads in the presence of compound; rechallenge with RPMI-8226; assay type: cell-based; details: for cytolytic activity of anti-BCMA CAR T cells / production of IFN-gamma, IL-2 or TNF-alpha: compound during long-term stimulation; for cytolytic activity of anti-BCMA CAR T cells: 0.3:1 E:T ratio; for production of IFN-gamma, IL-2 or TNF-alpha: 24 hours after plating; for viability and count of anti-BCMA CAR T cells: day 7, lenalidomide 1000 nM, Compound 2 0.1 nM, 1 nM or 10 nM
Method: Cryofrozen anti-BCMA CAR T cells, produced substantially as described in Example 1 and formulated at a 1:1 ratio of CD4+ and CD8+ T cells, were thawed. […] The cells were then incubated at 37° C., 5% CO2 for 7 days.
At day 7, anti-BCMA CAR cells of all the samples were counted using a cellometer machine and stained for flow cytometric analysis. Cells were stained with a viability dye and analyzed by flow cytometry.
Cytolytic activity was assessed using OPM-2 and RPMI-8226 BCMA expressing target cells transduced with NucLight Red, a red fluorescent protein detectable by microscopy, to allow for measurement of target cell death. Anti-BCMA CAR T cells that had been stimulated for 7 days with BCMA-conjugated beads in the presence of the compounds were co-cultured with RPMI-8226 target cells at a 0.3:1 (effector:target) or 1:1 ratio. Cultures were incubated at 37° C., 5% CO2, and images were taken every 2 hours over 5-7 days with an Essen IncuCyte Zoom live-cell analysis system to track NucLightRed-positive target cells.
For cytokine measurements, cell-free supernatants were collected from the cytolytic assay described above 24 hours after plating. Cytokine levels were measured using IFNg, IL-2, and TNFalpha Meso Scale Discovery cytokine kit (Mesoscale) according to manufacturer instructions. The data was analyzed using GraphPad Prism to calculate absolute changes in cytokine relative to the DMSO vehicle control.

[9] = system: RPMI-8226; assay: 7-day prestimulation of anti-BCMA CAR-T cells on BCMA beads, phenotype and re-challenge with RPMI-8226; assay type: cell-based, human
Method: Expression of CD25, PD-1, Tim3 and Lag3 on CAR T cells (using an antibody for surrogate CAR marker) cultured under the different conditions then was assessed by flow cytometry.
Percentage killing was normalized to anti-BCMA CAR T cells prestimulated on beads in the presence of vehicle. Cytokine production was assessed by ELISA from supernatant following culture with target cells for 24 hours. Experiments were performed twice in 3 donors. […] P values were obtained by likelihood ratio tests comparing the full model with the effect of interest against the model without the effect of interest.

[10] = system: RPMI-8226; assay: Serial restimulation with BCMA-conjugated beads, cytolytic activity against RPMI-8226; assay type: cell-based, human; details: 5 μM
Method: Cells from each condition were plated in triplicate. The % cell killing compared to vehicle only control (set at 100%) was determined.

[11] = system: IMiD/CELMoD resistant cell line DF-15R; assay: Rescue of chronically stimulated anti-BCMA CAR T cells rechallenged with DF-15R; assay type: cell-based; details: rechallenge with DF-15R
Method: Cytolytic activity and cytokine production following the rechallenge were assessed as described above.

[12] = 5:1 E:T ratio, high concentrations, Donor 2

Compound | cytolytic activity ([1]; 2.5:1 E:T ratio, some donors) | cytolytic activity [1, 12] | cytolytic function of anti-CD19 CAR-expressing T cells [1] | expression of CD27 [2] | expression of the other assessed activation markers [2] | expression of CD45RO [2] | expression of CD69 and LAG3 [2] | IFN-γ, IL-2 and TNF-α production [4] | expression of genes associated with a hypofunctional, exhausted state [5] | cytolytic activity of anti-BCMA CAR T cells [8] | production of IFN-gamma, IL-2 or TNF-alpha [8] | viability and count of anti-BCMA CAR T cells [8] | other results
Cc1nc2cccc(N)c2c(=O)n1C1CCC(=O)NC1=O (stereo not shown) [Compound 1, 3-(5-amino-2-methyl-4-oxo-4H-quinazolin-3-yl)-piperidine-2,6-dione] | slightly reduced cytolytic activity | slight but consistent increase | limited effect | downregulated in a concentration-dependent manner | remained unchanged | increased | increased in a concentration-dependent manner | increased relative to the vehicle control | partial reversal of expressed genes | – | – | – | Ikaros expression in CAR-expressing T cells [3]: decreased in a concentration dependent manner; magnitude of Ikaros loss compared with lenalidomide [3]: greater
Nc1cccc2c1CN(C1CCC(=O)NC1=O)C2=O (stereo not shown) [lenalidomide, 3-(4-amino-1-oxo-1,3-dihydro-2H-isoindol-2-yl)piperidine-2,6-dione] | slightly reduced cytolytic activity | slight but consistent increase | limited effect | downregulated in a concentration-dependent manner | remained unchanged | increased | not | increased relative to the vehicle control | partial reversal of expressed genes | increased cytolytic activity | increased production | increased | intracellular IFNγ and TNFα cytokine production ([6]; 0.1 μM or 1 μM, 5, 50 or 200 μg/mL BCMA beads): increased; IL-2 production in culture supernatants ([6]; 1 μM or 5 μM, 5 or 200 μg/mL BCMA beads, two donors): increased; BCMA-induced CAR+ T cell cytokine production (TNF-α, IFNγ, IL-2 in supernatants) ([6]; 5 μM, 5 or 50 μg/mL BCMA beads): increased; IFNγ, IL-2 and TNF-α production and/or accumulation ([7]; 0.01-10 μM, E:T 1:1, 24 hours, dose-dependent): enhance; IFN-γ, IL-2 and TNF-α production on co-culture with OPM-2 ([7]; all CAR T donors, concentration-dependent): significantly increased; percentage of PD-1+ cells in the CD4+ population ([9]; 1 μM): decrease; cytolytic function of prestimulated CAR-T cells ([9]; 1 μM during the prestimulation period): preserved; cytokine production of prestimulated CAR-T cells ([9]; 1 μM during the prestimulation period, vs vehicle): trend toward increased cytokine production; total cell count ([9]; 1 μM, 7 days on BCMA beads): did not alter; CAR+ viability ([9]; 1 μM, 7 days on BCMA beads, 3 healthy donors): significantly increased; percentage positive for Lag3 expression ([9]; 1 μM, CD4+ and CD8+ CAR+ populations): increased; CD25 in CD4+ and CD8+ CAR+ populations ([9]; 1 μM, all donors): increased; PD-1 expression of BCMA-CAR-T cells ([9]; 1 μM, prolonged stimulation): reduced; surface expression of Tim3 in the CD8+ population ([9]; 1 μM, three donors): increased; killing efficacy of anti-BCMA CAR+ T cells ([10]; further donor (FIG. 23B), all time points): increased killing efficacy; cytolytic activity of anti-BCMA CAR+ T cells ([10]; preincubated 7 days or 14 days, exemplary donor): greater cytolytic activity
O=C1CC[C@H](N2Cc3c(OCc4ccc(CN5CCOCC5)cc4)cccc3C2=O)C(=O)N1 [Compound 2, (S)-3-[4-(4-morpholin-4-ylmethyl-benzyloxy)-1-oxo-1,3-dihydro-isoindol-2-yl]-piperidine-2,6-dione] | – | – | – | – | – | – | – | – | – | increased cytolytic activity | increased production | increased | cytolytic activity and cytokine production of chronically stimulated anti-BCMA CAR T cells [11]: increased cytolytic activity
